Source: patent US8993282B2, “Carotenoid fermentation method” (JX Nippon Oil & Energy Corporation, priority 2008, dated 2015)

Tested on: Paracoccus carotinifaciens strain E-396 (FERM BP-4283)
Experiment: Glutamate concentration series, 5 L fermentation tank culture, carotenoid by HPLC
Type: cell-based
Details: for Produced carotenoid concentration, 3-Hydroxyechinenone / Produced carotenoid concentration, Adonixanthin / Produced carotenoid concentration, Astaxanthin / Produced carotenoid concentration, Asteroidenone / Produced carotenoid concentration, Canthaxanthin / Produced carotenoid concentration, Echinenone / Produced carotenoid concentration, Phoenicoxanthin / Produced carotenoid concentration, Total Carotenoid / Produced carotenoid concentration, Zeaxanthin / Produced carotenoid concentration, β-Carotene / Produced carotenoid concentration, β-Cryptoxanthin: 100 hours
Method: In the examples, carotenoids were quantified by high performance liquid chromatography (HPLC) as follows.
Two columns of Wakosil-II 5 SIL-100 (φ4.6×250 mm) (Wako Pure Chemical Industries, Ltd., Japan) were connected to each other for use as a column. Elution was performed by flowing an n-hexane-tetrahydrofuran-methanol mixed solution (40:20:1), which was a mobile phase, at a flow rate of 1.0 mL/minute at a constant temperature around room temperature. The measurement was performed as follows. Samples were each dissolved in tetrahydrofuran and then diluted 100-fold with the mobile phase. Each dilution was injected in a volume of 20 μL. The column eluate was detected at a wavelength of 470 nm. As a reference for quantification, astaxanthin (SIGMA, Cat. No. A9335) was used. The astaxanthin concentration of the reference solution was determined using the following equation after measuring the absorbance (A) of the reference solution at 477 nm and the area percentage % (B) of the astaxanthin peak at the time of HPLC analysis under the above conditions. Astaxanthin concentration (mg/L)=A/2150×B×100
A medium of the following composition (glucose 20 g/L, filtered corn steep liquor 5 g/L, potassium dihydrogenphosphate 0.54 g/L, dipotassium hydrogenphosphate 12-hydrate 2.78 g/L, calcium chloride dihydrate 5.0 g/L, magnesium sulfate 7-hydrate 0.7 g/L, iron sulfate 7-hydrate 3.0 g/L, alcohol-based defoaming agent 0.2 g/L., pH 7.5) was dispensed in 100 ml volumes into 500 mL cotton-plugged Erlenmeyer flasks and sterilized in an autoclave at 121° C. for 15 minutes to prepare a flask medium for seed culture in 8 flasks.
Next, a medium of the following composition (glucose 40 g/L, corn steep liquor 30 g/L, ammonium sulfate 0.5 g/L, potassium dihydrogenphosphate 2.25 g/L, disodium hydrogenphosphate 12-hydrate 5.7 g/L, calcium chloride dihydrate 0.1 g/L, magnesium sulfate 7-hydrate 0.5 g/L, iron sulfate 7-hydrate 5 g/L, alcohol-based defoaming agent 0.5 g/L) was dispensed in 2.0 L volumes into 5 L fermentation tanks (8 tanks in total). To these tanks, monosodium L-glutamate monohydrate was added at 0, 1, 5, 15, 30, 50, 100 and 200 mmol/L, respectively, followed by sterilization in an autoclave at 121° C. for 30 minutes.
A loopful of Paracoccus carotinifaciens strain E-396 (FERM BP-4283) was inoculated into the flask medium for seed culture and then cultured with rotary shaking at 29° C. for 2 days at 100 rpm. The resulting culture solution was then inoculated in 80 mL, volumes into the individual fermentation tanks, followed by aerobic culture at 29° C. at an aeration volume of 1 vvm for 100 hours. To maintain a pH of 7.2 during culture, the pH was continuously controlled with 15% aqueous ammonia. Glucose was added in an amount of 30 g on day 1 and day 2 of culture to prevent glucose depletion. In addition, the minimum number of agitation rotations was set to 200 rpm, and the number of agitation rotations was varied such that the dissolved oxygen concentration in the culture solution was maintained at 2 to 4 ppm. Bubbling was detected with a bubble sensor and suppressed by automatic addition of an alcohol-based defoaming agent.
At the completion of culture, each culture solution was measured for its carotenoid concentration by HPLC.

[1] = Glutamic acid concentration 1 mmol/L
[2] = Glutamic acid concentration 5 mmol/L
[3] = Glutamic acid concentration 15 mmol/L
[4] = Glutamic acid concentration 30 mmol/L
[5] = Glutamic acid concentration 50 mmol/L
[6] = Glutamic acid concentration 100 mmol/L
[7] = Glutamic acid concentration 200 mmol/L

N[C@@H](CCC(=O)O)C(=O)O [Glutamic acid, glutamic acid]
Produced carotenoid concentration, 3-Hydroxyechinenone [1]: 0.2 mg/L
Produced carotenoid concentration, Adonixanthin [1]: 7.8 mg/L
Produced carotenoid concentration, Astaxanthin [1]: 18.3 mg/L
Produced carotenoid concentration, Asteroidenone [1]: 0.4 mg/L
Produced carotenoid concentration, Canthaxanthin [1]: 2.0 mg/L
Produced carotenoid concentration, Echinenone [1]: 1.6 mg/L
Produced carotenoid concentration, Phoenicoxanthin [1]: 5.1 mg/L
Produced carotenoid concentration, Total Carotenoid [1]: 39.9 mg/L
Produced carotenoid concentration, Zeaxanthin [1]: 0.17 mg/L
Produced carotenoid concentration, β-Carotene [1]: 4.3 mg/L
Produced carotenoid concentration, β-Cryptoxanthin [1]: 0.05 mg/L
Produced carotenoid concentration, 3-Hydroxyechinenone [2]: 0.3 mg/L
Produced carotenoid concentration, Adonixanthin [2]: 7.8 mg/L
Produced carotenoid concentration, Astaxanthin [2]: 27.3 mg/L
Produced carotenoid concentration, Asteroidenone [2]: 0.4 mg/L
Produced carotenoid concentration, Canthaxanthin [2]: 3.7 mg/L
Produced carotenoid concentration, Echinenone [2]: 1.9 mg/L
Produced carotenoid concentration, Phoenicoxanthin [2]: 7.8 mg/L
Produced carotenoid concentration, Total Carotenoid [2]: 55.7 mg/L
Produced carotenoid concentration, Zeaxanthin [2]: 0.18 mg/L
Produced carotenoid concentration, β-Carotene [2]: 6.2 mg/L
Produced carotenoid concentration, β-Cryptoxanthin [2]: 0.07 mg/L
Produced carotenoid concentration, 3-Hydroxyechinenone [3]: 0.3 mg/L
Produced carotenoid concentration, Adonixanthin [3]: 9.6 mg/L
Produced carotenoid concentration, Astaxanthin [3]: 30.8 mg/L
Produced carotenoid concentration, Asteroidenone [3]: 0.6 mg/L
Produced carotenoid concentration, Canthaxanthin [3]: 3.0 mg/L
Produced carotenoid concentration, Echinenone [3]: 2.1 mg/L
Produced carotenoid concentration, Phoenicoxanthin [3]: 7.2 mg/L
Produced carotenoid concentration, Total Carotenoid [3]: 59.7 mg/L
Produced carotenoid concentration, Zeaxanthin [3]: 0.19 mg/L
Produced carotenoid concentration, β-Carotene [3]: 5.8 mg/L
Produced carotenoid concentration, β-Cryptoxanthin [3]: 0.07 mg/L
Produced carotenoid concentration, 3-Hydroxyechinenone [4]: 0.3 mg/L
Produced carotenoid concentration, Adonixanthin [4]: 9.3 mg/L
Produced carotenoid concentration, Astaxanthin [4]: 30.3 mg/L
Produced carotenoid concentration, Asteroidenone [4]: 0.6 mg/L
Produced carotenoid concentration, Canthaxanthin [4]: 3.1 mg/L
Produced carotenoid concentration, Echinenone [4]: 2.2 mg/L
Produced carotenoid concentration, Phoenicoxanthin [4]: 7.4 mg/L
Produced carotenoid concentration, Total Carotenoid [4]: 59.4 mg/L
Produced carotenoid concentration, Zeaxanthin [4]: 0.20 mg/L
Produced carotenoid concentration, β-Carotene [4]: 5.9 mg/L
Produced carotenoid concentration, β-Cryptoxanthin [4]: 0.08 mg/L
Produced carotenoid concentration, 3-Hydroxyechinenone [5]: 0.4 mg/L
Produced carotenoid concentration, Adonixanthin [5]: 10.8 mg/L
Produced carotenoid concentration, Astaxanthin [5]: 30.9 mg/L
Produced carotenoid concentration, Asteroidenone [5]: 0.9 mg/L
Produced carotenoid concentration, Canthaxanthin [5]: 2.0 mg/L
Produced carotenoid concentration, Echinenone [5]: 2.3 mg/L
Produced carotenoid concentration, Phoenicoxanthin [5]: 6.4 mg/L
Produced carotenoid concentration, Total Carotenoid [5]: 58.9 mg/L
Produced carotenoid concentration, Zeaxanthin [5]: 0.21 mg/L
Produced carotenoid concentration, β-Carotene [5]: 4.9 mg/L
Produced carotenoid concentration, β-Cryptoxanthin [5]: 0.07 mg/L
Produced carotenoid concentration, 3-Hydroxyechinenone [6]: 0.3 mg/L
Produced carotenoid concentration, Adonixanthin [6]: 9.2 mg/L
Produced carotenoid concentration, Astaxanthin [6]: 28.6 mg/L
Produced carotenoid concentration, Asteroidenone [6]: 0.6 mg/L
Produced carotenoid concentration, Canthaxanthin [6]: 2.8 mg/L
Produced carotenoid concentration, Echinenone [6]: 2.0 mg/L
Produced carotenoid concentration, Phoenicoxanthin [6]: 7.0 mg/L
Produced carotenoid concentration, Total Carotenoid [6]: 56.2 mg/L
Produced carotenoid concentration, Zeaxanthin [6]: 0.18 mg/L
Produced carotenoid concentration, β-Carotene [6]: 5.5 mg/L
Produced carotenoid concentration, β-Cryptoxanthin [6]: 0.06 mg/L
Produced carotenoid concentration, 3-Hydroxyechinenone [7]: 0.3 mg/L
Produced carotenoid concentration, Adonixanthin [7]: 7.6 mg/L
Produced carotenoid concentration, Astaxanthin [7]: 23.5 mg/L
Produced carotenoid concentration, Asteroidenone [7]: 0.5 mg/L
Produced carotenoid concentration, Canthaxanthin [7]: 2.4 mg/L
Produced carotenoid concentration, Echinenone [7]: 1.7 mg/L
Produced carotenoid concentration, Phoenicoxanthin [7]: 5.9 mg/L
Produced carotenoid concentration, Total Carotenoid [7]: 46.7 mg/L
Produced carotenoid concentration, Zeaxanthin [7]: 0.15 mg/L
Produced carotenoid concentration, β-Carotene [7]: 4.6 mg/L
Produced carotenoid concentration, β-Cryptoxanthin [7]: 0.05 mg/L
produced carotenoid concentration compared to the sample without glutamic acid (glutamic acid at concentrations from 1 to 200 mmol/L): higher produced carotenoid concentration
